We go through ten molecules from ChEMBL document CHEMBL1201862, “PubChem BioAssay data set” (2004).

SMILES strings stand for the structures.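 Dose response: 5 concentrations. Exposure: 48 h. Format: 96-well plates. Endpoint: linear interpolation; highest concentration if not reached. The concentration for 50% growth inhibition is given as GI50.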 Activity calls are given as the source filed them. No stated cut-off is given here; in the data, active = GI50 up to about 1.1 µM and inactive = higher.

Among the test systems are SK-MEL-28; M14; MDA-MB-231; MCF7; BT-549; SK-OV-3; MDA-MB-435; EKVX; T47D; HOP-62; U-251; SN12C; Malme-3M; IGROV-1; OVCAR-5; SK-MEL-2; MOLT-4; K562; KM12; SF-295.
Holding throughout (experiment): DTP human tumour cell line panel, 48 h

As to `CCOC(=O)C(NC(=O)c1ccccc1)(Nc1ccc(S(=O)(=O)Nc2ncccn2)cc1)C(F)(F)F` (stereo not given), the GI50 was > 100 µM (inactive) with SK-MEL-28; > 100 µM (inactive) in the test on M14; > 100 µM (inactive) in the test with MDA-MB-231; > 100 µM (inactive) in the test on MCF7; > 100 µM (inactive) in the test on BT-549; 0.513 µM (active) in the test with SK-OV-3. Further, the GI50 with MDA-MB-435, with EKVX, in the test on T47D, in the test with HOP-62, in the test with U-251 and in the test on SN12C was > 100 µM (inactive) throughout. Besides, the GI50 with Malme-3M, with IGROV-1, with OVCAR-5, with SK-MEL-2, with MOLT-4 and in the test on K562 was > 100 µM (inactive) each time. The GI50 in the test with KM12 and in the test with SF-295 was > 100 µM (inactive) throughout.
As for `CC(=O)OCOC(=O)CN(CC(=O)OCOC(C)=O)Cc1cc2c(cc1OC(C)=O)Oc1cc(OC(C)=O)c(CN(CC(=O)OCOC(C)=O)CC(=O)OCOC(C)=O)cc1C21OC(=O)c2ccccc21`, the GI50 in the test with SK-MEL-28 is 0.484 µM (active); in the test on M14 it was 1.16 µM (inactive); in the test on MDA-MB-231, 1.45 µM (inactive); with MCF7, 0.342 µM (active); in the test with BT-549, 0.265 µM (active); with SK-OV-3, 2.54 µM (inactive). Besides, the GI50 in the test with MDA-MB-435 is 0.782 µM (active); in the test on EKVX, 2.52 µM (inactive); in the test on T47D, 1.4 µM (inactive); in the test with HOP-62, 1.1 µM (active); in the test with U-251, 1.87 µM (inactive); in the test on SN12C it was 1.13 µM (inactive). In addition, the GI50 in the test on Malme-3M is 0.902 µM (active); with IGROV-1, 0.277 µM (active); in the test with OVCAR-5 it was 2.94 µM (inactive); in the test on SK-MEL-2, 0.369 µM (active); in the test on MOLT-4, 0.241 µM (active); with K562, 0.122 µM (active). The GI50 in the test on SF-295 was 1.59 µM (inactive).
Consider `CCCCSC1=N/C(=C\c2ccco2)C(Cl)=N1`, for which the GI50 in the test on SK-MEL-28, with M14, with MDA-MB-231, in the test with MCF7, in the test on BT-549 and in the test on SK-OV-3 was > 100 µM (inactive) throughout. Further, the GI50 in the test with MDA-MB-435, in the test with EKVX, in the test on T47D, in the test with HOP-62, with U-251 and with SN12C was > 100 µM (inactive) in each case. The GI50 in the test with Malme-3M, in the test on IGROV-1, in the test on OVCAR-5, in the test with SK-MEL-2, in the test on MOLT-4 and with KM12 was > 100 µM (inactive) each time. Further, the GI50 in the test with SF-295 is > 100 µM (inactive).
On to `Cc1ccc(-c2n[nH]c(=O)n2/N=C\c2ccc([N+](=O)[O-])cc2)cc1`, for which the GI50 is > 100 µM (inactive) in the test with SK-MEL-28; 58.2 µM (inactive) with M14; 9.75 µM (inactive) in the test on MDA-MB-231; 99.5 µM (inactive) in the test with MCF7; 54.1 µM (inactive) with BT-549; > 100 µM (inactive) in the test with SK-OV-3. Further, the GI50 is 35 µM (inactive) in the test on MDA-MB-435; > 100 µM (inactive) in the test with EKVX; > 91.8 µM (inactive) with T47D; 52.4 µM (inactive) in the test on HOP-62; > 100 µM (inactive) in the test with U-251; > 100 µM (inactive) with SN12C. Besides, the GI50 is > 100 µM (inactive) in the test on Malme-3M; > 100 µM (inactive) in the test with IGROV-1; > 100 µM (inactive) with OVCAR-5; > 100 µM (inactive) in the test on SK-MEL-2; > 42.2 µM (inactive) in the test on MOLT-4; 32 µM (inactive) with K562. Also, the GI50 in the test on KM12 and in the test on SF-295 was > 100 µM (inactive) in each case.
For `COc1ccc2c(c1)/C(=C\c1c(C)nc3sc(C)cn13)C(=O)N2`, the GI50 was 54.6 µM (inactive) in the test on SK-MEL-28; 0.75 µM (active) in the test with M14; 0.855 µM (active) with MDA-MB-231; 0.332 µM (active) in the test on MCF7; 1.66 µM (inactive) in the test on BT-549; 1.64 µM (inactive) in the test with SK-OV-3. In addition, the GI50 is 0.106 µM (active) with MDA-MB-435; 3.24 µM (inactive) in the test with EKVX; 9.89 µM (inactive) in the test with T47D; 1.53 µM (inactive) in the test with HOP-62; 0.217 µM (active) in the test on U-251; 8.49 µM (inactive) with SN12C. Besides, the GI50 was 0.172 µM (active) in the test on Malme-3M; 0.755 µM (active) in the test on IGROV-1; 3.24 µM (inactive) in the test on OVCAR-5; 0.263 µM (active) with SK-MEL-2; 0.778 µM (active) in the test with MOLT-4; 0.446 µM (active) in the test on K562. Also, the GI50 in the test on KM12 is 0.327 µM (active); with SF-295, 0.309 µM (active).
As for `COc1ccc2oc(OC)c(CC=C(C)C)c(=O)c2c1C`, the GI50 with SK-MEL-28, in the test with M14, in the test on MDA-MB-231, in the test on MCF7, with BT-549 and in the test on SK-OV-3 was > 100 µM (inactive) throughout. Moreover, the GI50 in the test with MDA-MB-435, in the test with EKVX, in the test with T47D, with HOP-62, with U-251 and with SN12C was > 100 µM (inactive) throughout. Besides, the GI50 in the test on Malme-3M, in the test on IGROV-1, in the test with OVCAR-5, with SK-MEL-2, in the test on MOLT-4 and with K562 was > 100 µM (inactive) in each case. Besides, the GI50 with KM12 and in the test with SF-295 was > 100 µM (inactive) each time.
With `Cc1ccc(/N=N/c2c(C)c(C#N)c(=S)n(C3OC(CO)C(O)C(O)C3O)c2-c2ccccc2)cc1` (stereo not given), the GI50 was 16.5 µM (inactive) in the test on SK-MEL-28; 14.6 µM (inactive) in the test on M14; 40 µM (inactive) with MDA-MB-231; 18.2 µM (inactive) with MCF7; 19.6 µM (inactive) with BT-549; 34.1 µM (inactive) in the test on SK-OV-3. For the same molecule, the GI50 was 6.18 µM (inactive) with MDA-MB-435; 22.4 µM (inactive) in the test on T47D; 24.9 µM (inactive) in the test with HOP-62; 14.4 µM (inactive) in the test on U-251; 31.4 µM (inactive) in the test on SN12C; 24.9 µM (inactive) in the test with Malme-3M. Further, the GI50 was 31.3 µM (inactive) in the test with IGROV-1; 28.9 µM (inactive) in the test with OVCAR-5; 19.5 µM (inactive) in the test with SK-MEL-2; 9.73 µM (inactive) with MOLT-4; 8.13 µM (inactive) in the test with K562; 19 µM (inactive) with KM12. Further, the GI50 with SF-295 is 20.5 µM (inactive).
Turning to `COC1=C(Cl)C(=O)c2c(O)ccc(O)c2C1=O`, the GI50 with SK-MEL-28 is 2.58 µM (inactive); in the test with M14, 0.541 µM (active); in the test on MDA-MB-231, 1.66 µM (inactive); with MCF7 it was 1.04 µM (active); with BT-549, 1.82 µM (inactive); with SK-OV-3, 16 µM (inactive). In addition, the GI50 is 1.28 µM (inactive) with MDA-MB-435; 0.902 µM (active) in the test on EKVX; 1.03 µM (active) in the test with T47D; 0.873 µM (active) with HOP-62; 3.53 µM (inactive) with U-251; 1.31 µM (inactive) with SN12C. In addition, the GI50 was 0.478 µM (active) with Malme-3M; 1.7 µM (inactive) with IGROV-1; 3.01 µM (inactive) in the test on OVCAR-5; 0.499 µM (active) in the test on SK-MEL-2; 0.0372 µM (active) in the test on MOLT-4; 0.826 µM (active) in the test with K562. Also, the results for the GI50 in the test on KM12 and with SF-295 were 6.17 µM (inactive) and 6.43 µM (inactive), respectively.
Regarding `COc1ccc(/C=N/Nc2nc(=S)[nH]c3[nH]ncc23)cc1`, the GI50 with SK-MEL-28 was 35.2 µM (inactive); with M14, 41.8 µM (inactive); in the test with MDA-MB-231 it was 34.6 µM (inactive); in the test on MCF7, 43.5 µM (inactive); in the test on BT-549 it was > 100 µM (inactive); with SK-OV-3, > 100 µM (inactive). Moreover, the GI50 in the test on MDA-MB-435 is 30.6 µM (inactive); with EKVX, 59.4 µM (inactive); in the test on T47D, 14.5 µM (inactive); with HOP-62, 29.9 µM (inactive); in the test with U-251, 19.1 µM (inactive); in the test on SN12C, > 100 µM (inactive). Moreover, the GI50 was 38.2 µM (inactive) in the test on Malme-3M; 25 µM (inactive) in the test with IGROV-1; 45.5 µM (inactive) in the test on OVCAR-5; 45.7 µM (inactive) in the test on SK-MEL-2; > 100 µM (inactive) in the test on MOLT-4; > 100 µM (inactive) in the test on K562. The results for the GI50 in the test on KM12 and with SF-295 were 49.9 µM (inactive) and 40.6 µM (inactive), respectively.
As for `CCNCCNc1c2ccccc2nc2ccccc12`, the GI50 was 1.39 µM (inactive) with M14; 1.24 µM (inactive) in the test with MDA-MB-231; 0.565 µM (active) in the test on MCF7; 2.84 µM (inactive) with BT-549; 1.07 µM (active) with SK-OV-3; 1.21 µM (inactive) in the test on MDA-MB-435. Further, the GI50 in the test with EKVX is 2.44 µM (inactive); with T47D, 2.38 µM (inactive); in the test on HOP-62, 0.461 µM (active); in the test with SN12C, 0.938 µM (active); with Malme-3M it was 1.7 µM (inactive); in the test on IGROV-1, 1.88 µM (inactive). For the same molecule, the GI50 in the test on OVCAR-5 is 1.13 µM (inactive); in the test on SK-MEL-2 it was 1.51 µM (inactive); with MOLT-4, 0.54 µM (active); with K562 it was 0.551 µM (active); in the test with KM12 it was 1.58 µM (inactive); in the test on SF-295, 1.21 µM (inactive).
